From US7642239B2, “Inhibition of placenta growth factor (PLGF) mediated metastasis and/or angiogenesis” (Center for Molecular Medicine and Immunology, priority 2005, dated 2010)
Marks after values point to notes of the source that are not given here. Ends that are not written are not given here.

Columns and labels:
[1] = target: T1, recombinant human Flt-1 fusion protein (Homo sapiens, UniProt P17948); test: Free peptide binding and competition ELISA, Flt-1-coated wells
T1 construct: purchased R & D Systems
T1 sequence (P17948 with tags, fused parts or gaps limits assumed): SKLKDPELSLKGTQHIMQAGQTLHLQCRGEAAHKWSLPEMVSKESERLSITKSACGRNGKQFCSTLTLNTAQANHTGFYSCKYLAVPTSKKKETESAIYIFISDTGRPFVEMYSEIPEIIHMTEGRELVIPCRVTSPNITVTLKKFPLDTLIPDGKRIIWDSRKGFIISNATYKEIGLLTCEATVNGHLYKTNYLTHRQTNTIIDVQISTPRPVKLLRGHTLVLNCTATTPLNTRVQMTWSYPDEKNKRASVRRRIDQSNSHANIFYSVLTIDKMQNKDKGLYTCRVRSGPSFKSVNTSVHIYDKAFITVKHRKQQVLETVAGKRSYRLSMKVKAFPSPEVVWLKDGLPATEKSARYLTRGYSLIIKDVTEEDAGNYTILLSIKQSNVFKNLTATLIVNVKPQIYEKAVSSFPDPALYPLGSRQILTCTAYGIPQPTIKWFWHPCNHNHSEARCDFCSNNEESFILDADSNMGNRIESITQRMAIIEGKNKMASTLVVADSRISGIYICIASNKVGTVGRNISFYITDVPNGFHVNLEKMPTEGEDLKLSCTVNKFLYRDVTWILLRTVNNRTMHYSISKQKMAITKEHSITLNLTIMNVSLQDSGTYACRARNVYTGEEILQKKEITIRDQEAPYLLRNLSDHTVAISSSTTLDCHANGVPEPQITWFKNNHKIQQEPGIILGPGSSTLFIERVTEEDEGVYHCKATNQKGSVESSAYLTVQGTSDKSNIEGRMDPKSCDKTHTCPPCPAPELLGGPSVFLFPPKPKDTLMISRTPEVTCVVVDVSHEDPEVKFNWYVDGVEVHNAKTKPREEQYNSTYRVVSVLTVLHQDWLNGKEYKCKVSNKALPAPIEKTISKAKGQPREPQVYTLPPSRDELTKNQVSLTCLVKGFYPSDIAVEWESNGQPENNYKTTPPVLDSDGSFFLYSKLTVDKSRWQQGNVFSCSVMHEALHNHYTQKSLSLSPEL
Description: Competition assays were done with 2.5 or 25 U/ml heparin (Sigma, St. Louis, Mo.). BP1, 3, 4, and a scrambled version of BP3 (scrBP3) were synthesized with a linker followed by the FLAG epitope ([…] SEQ ID NO:5) at the C-terminus. Thirty minutes after addition of the first reagent, the second reagent was added, followed by another 30 minute incubation. Peptide binding was assessed by probing for the FLAG epitope (Prickett et al., Biotechniques 7:580-9, 1989; Castrucci et al., J. Virol. 66:4647-53, 1992). Absorbance was read at 490 nm.

MDA-MB-468 = test: Wound-healing (motility) assay, MDA-MB-468; format: cell-based, human; settings: for Relative activity: unit assumed; for Migrating cells: 18-24 h
Description: (§1) MCF-7, MDA-MB-23 1, and MDA-MB-468 breast tumor cell lines or HECs were seeded onto sterile glass coverslips in Petri dishes or six-well plates. When the cells were 70-80% confluent, the monolayers were scratched with a sterile plastic pipet tip.
(§2) Inhibitor concentrations were 50 μM PD98059 (PD98) (mitogen activated protein kinase-kinase 1 [MEK1] inhibitor), 5 nM Wortmannin (phosphatidyl inositol 3 kinase [PI3K] inhibitor), or human recombinant soluble Flt-1 (sFlt-1) (R&D Systems). […] Cells were pre-incubated with PD98 and Wortmannin for 15-30 min before addition of PlGF. Stained (Wright-Giemsa) and mounted coverslips were examined microscopically. Five to ten 100× fields were evaluated by counting the number of cells separated from the wound edges and which appeared to be migrating toward the center of the wound. Results are reported as the average number of cells migrating into the wound/100× field. In some cases data from separate experiments were combined to accommodate inclusion of various treatments in the tables.
(§3) Antibody concentration was 1 μg/ml. MEK1 inhibitor, PD98059 (PD98), 50 μM. PI3K inhibitor, Wortmannin, 5 nM. […] Values for antibody and inhibitor treatments were from separate experiments which included all relevant controls. […] UT denotes untreated controls. *P<0.01 (ANOVA) compared to UT; † P<0.02 (ANOVA) compared to PlGF only. ‡ P<0.001 (ANOVA) compared to PlGF only.

MDA-MB-231 [2] = test: Wound-healing (motility) assay, MDA-MB-231; format: cell-based, human; settings: for Relative activity: unit assumed; for Migrating cells: 18-24 h
Description: as §1, §2, §3

MDA-MB-231 [3] = test: Matrigel cell invasion assay, MDA-MB-231; format: cell-based, human
Description: Cellular invasion was determined by addition of 5×10^4cells to growth factor-reduced Matrigel invasion chambers (BD Biosciences Discovery Labware, Bedford, Mass.) (Taylor et al., 2003b; Passaniti et al., 1992, Lab Invest 67, 519-528). Additives to the Matrigel® plugs were pre-incubated together in a total volume of 100 μl PBS at RT for 10 min, after which each additive was added to the Matrigel. Growth factors (2.0 or 0.2 nM), peptide (2 μg/ml), or antibody (1 μg/ml) were added to cells in low serum (0.1% fetal bovine serum [FBS]) medium. Baseline and chemoattractant-based invasion (10% FBS) were included. The number of invading cells was determined by counting the number of cells on the bottom of the invasion chamber membrane after staining at 100× magnification after 24 h (MDA-MB-231) or 48 h (MCF-7, MDA-MB-468). The results of three to five separate experiments are presented.

[4] = tested on: MDA-MB-231 s.c. xenograft; test: Subcutaneous MDA-MB-231 xenograft growth and lung metastasis; format: in vivo, nude mice
Description: The tissue-culture-grown human breast tumor cell line, MDA-MB-231, was implanted subcutaneously (s.c.) on the flanks of nude mice. When tumors were visible, the mice were weighed and the tumors measured. Treatment with peptides was begun when tumors averaged about 0.06-0.12 cm^3 in volume. Mice were treated with 200-μg peptide in PBS by i.p. injection at 3-4-day intervals for 4 weeks. Animals were weighed and the tumors measured at each treatment. In a second experiment, the control peptide, CPA, was included. Three days after the final treatment, tumors and lungs were harvested. Tumor burden of the lungs (from experiment 1) was determined by counting colonies (<20 cells), clusters (>20-100 cells), and nodules (>100 cells) seen in all the lung tissue on a total of 4 slides or sections for each mouse. Data are presented as the average number of each size of metastasis for each treatment group (3-4 mice/group). The total number of each was summed for each treatment group, and divided by the total number of mice in that group. The percent inhibition for metastasis was determined by the formula: % inhibition=(# mock-treated−# treated/# mock-treated)×100.
To test for therapeutic activity of the peptide, BP1, mice were implanted with human breast cancer cells, MDA-MB-231, which produces lung metastases spontaneously when implanted as a subcutaneous tumor. When the tumors averaged 0.12 cm^3 in volume, either mock-treatment or therapy with BP1 was initiated at 200 μg, two times per week for 4 weeks. […] In a subsequent experiment, treatment was commenced when tumors were 0.07-0.08 cm^3. After 4 weeks of treatment, as described, the mean volume of the mock- and CPA-treated tumors was 0.25 and 0.33 cm^3, respectively, whereas BP1-treated tumors averaged 0.04 cm^3 (P<0.05 BP1 vs. mock- or CPA-treated tumors) (FIG. 3A).

MCF-7 = test: Wound-healing (motility) assay, MCF-7; format: cell-based, human; settings: for Relative activity: unit assumed; for Migrating cells: 18-24 h
Description: as §1, §2, §3

[5] = PlGF 2 nM ± test agent, relative to PlGF-only value
[6] = VEGF 2 nM ± test agent, relative to VEGF-only value
[7] = growth factor PlGF 2 nM ± test agent (Flt-1 2 nM, peptide 2 μM, antibody 1 μg/ml)
[8] = growth factor VEGF 2 nM ± test agent

SHRYRLAIQLHASDSSSSCV [BP1]
binding to Flt-1, fold over background [1]: 10 fold
inhibition at 1 µM ([1]; 1 μM BP1 followed by 2.5 U/ml heparin, read-out: inhibition of BP1 binding to Flt-1, BP1 added prior to heparin): 13%
binding to immobilized Flt-1 (A490), BP1 only ([1]; 5 μM BP1 only): 0.527±0.025
binding to immobilized Flt-1 (A490), with added free Flt-1 ([1]; 5 μM BP1 with added free Flt-1 (2 nM)): 0.327±0.127
decrease in BP1 binding to Flt-1, heparin added before BP1 ([1]; 2.5 U/ml heparin followed by 1 μM BP1): 64%
effect of PlGF on the binding of BP1 to Flt-1 ([1]; PlGF between 1 and 100 nM): no significant effect
decrease in binding of BP1 to immobilized Flt-1 by free Flt-1 ([1]; free Flt-1 2 nM, 5 μM BP1): 38%
binding to Flt-1 (A490) ([1]; peptide with C-terminal FLAG epitope): 0.886±0.096
Relative activity (MDA-MB-468; [5]): 97%
Relative activity (MDA-MB-468; [6]): 113%
Migrating cells (MDA-MB-468; [7]): 14.3 ± 8.1 cells/100× field
Migrating cells (MDA-MB-468; [8]): 15.8 ± 9.5 cells/100× field
Relative activity (MDA-MB-231 [2]; [5]): 32%
Relative activity (MDA-MB-231 [2]; [6]): 132%
effect on PlGF-stimulated motility (in words) (MDA-MB-231 [2]; antibody 1 μg/ml, peptide 2 μM): inhibited
Migrating cells (MDA-MB-231 [2]; growth factor PlGF 2 nM ± test agent (Flt-1 2 nM, peptide 2 μM, antibody 1 μg/ml, PD98059 50 μM, Wortmannin 5 nM)): 13.6 ± 6.1† cells/100× field
Migrating cells (MDA-MB-231 [2]; growth factor VEGF 2 nM ± test agent (peptide 2 μM, antibody 1 μg/ml)): 14.7 ± 2.1 cells/100× field
Average fold-change in the number of cells on the membrane compared to untreated controls (MDA-MB-231 [3]; PlGF 0.2 nM ± peptide 2 μg/ml, 24 h): 1.3 ± 0.1 fold
invading cells, PlGF plus peptide (MDA-MB-231 [3]; PlGF-stimulated invasion with added peptide, 24 h): 15±4.2 cells
decrease in PlGF-stimulated invasion (MDA-MB-231 [3]; added peptide): 50%
Average fold-change in the number of cells on the membrane compared to untreated controls (MDA-MB-231 [3]; peptide 2 μg/ml alone, 24 h): 1.0 ± 0.6 fold
reduction in tumor size compared to mock-treated controls ([4]; start at 0.12 cm^3, 200 μg two times per week for 4 weeks): 37%
mean tumor volume after 4 weeks of treatment ([4]; subsequent experiment, start at 0.07-0.08 cm^3, 200 μg i.p., mock 0.25): 0.04 cm^3
lung colonies (<20 cells) per mouse ([4]; total lung tissue/mouse, mock 36±6): 5±2
lung clusters (>20-100 cells) per mouse ([4]; total lung tissue/mouse, mock 76±19): 9±2
lung nodules (>100 cells) per mouse ([4]; total lung tissue/mouse, mock 78±25): 5±2
decrease in the number of metastatic lung nodules ([4]; vs mock-treated): 94%
Relative activity (MCF-7; [5]): 45%
Relative activity (MCF-7; [6]): 102%
effect on PlGF-stimulated motility (in words) (MCF-7; antibody 1 μg/ml, peptide 2 μM): inhibited
Migrating cells (MCF-7; [7]): 10.2 ± 7.8† cells/100× field
Migrating cells (MCF-7; [8]): 12.9 ± 2.9 cells/100× field
